Measurements from ChEMBL document CHEMBL5365467 (J Med Chem, 2023).

Key:
[1] = target: Protein cereblon/Androgen receptor (Homo sapiens, UniProt P10275+Q96SW2); assay: PROTAC activity at AR/CRBN in AR-positive human VCaP cells assessed as induction of androgen receptor degradation measured at 24 hrs; assay type: cell-based
[2] = target: Protein cereblon/Androgen receptor (Homo sapiens, UniProt P10275+Q96SW2, T878A); assay: PROTAC activity at AR T878A mutant/CRBN in human LNCaP cells assessed as induction of androgen receptor degradation measured at 24 hrs by Western blot analysis; assay type: cell-based
[3] = test system: VCaP; assay: Growth inhibition in human VCaP cells
[4] = Half life in Sprague-Dawley rat at 2 mg/kg, iv measured upto 24 hrs by LC-MS/MS analysis; conditions: in vivo
[5] = Volume of distribution at steady state in Sprague-Dawley rat at 2 mg/kg, iv measured upto 24 hrs by LC-MS/MS analysis; conditions: in vivo
[6] = Clearance in Sprague-Dawley rat at 2 mg/kg, iv measured upto 24 hrs by LC-MS/MS analysis; conditions: in vivo
[7] = Half life in Sprague-Dawley rat at 5 mg/kg, po measured upto 24 hrs by LC-MS/MS analysis; conditions: in vivo
[8] = in vivo; conditions: Sprague-Dawley, rat, iv, 2 mg/kg
[9] = in vivo; conditions: Sprague-Dawley, rat, po, 5 mg/kg
[10] = in vivo; conditions: Sprague-Dawley, rat, po, 5 mg/kg; remark: listed apart in the source
[11] = in vivo; conditions: Sprague-Dawley, rat, po, 5 mg/kg; remark: listed apart in the source
[12] = target: Protein cereblon (Homo sapiens, UniProt Q96SW2); assay: Binding affinity to CRBN (unknown origin) assessed as inhibition constant
Chain of Protein cereblon (Q96SW2 whole entry): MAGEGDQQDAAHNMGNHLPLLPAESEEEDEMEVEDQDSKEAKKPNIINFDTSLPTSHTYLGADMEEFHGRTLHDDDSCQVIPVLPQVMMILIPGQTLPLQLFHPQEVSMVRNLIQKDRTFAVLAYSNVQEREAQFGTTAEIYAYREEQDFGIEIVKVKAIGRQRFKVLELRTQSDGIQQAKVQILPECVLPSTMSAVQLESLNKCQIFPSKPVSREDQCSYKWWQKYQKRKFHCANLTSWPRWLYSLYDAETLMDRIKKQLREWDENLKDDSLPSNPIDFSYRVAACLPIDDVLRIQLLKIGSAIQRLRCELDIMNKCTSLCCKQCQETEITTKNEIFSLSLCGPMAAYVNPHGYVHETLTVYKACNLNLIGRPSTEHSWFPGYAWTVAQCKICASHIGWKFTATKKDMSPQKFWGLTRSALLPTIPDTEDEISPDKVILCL

[13] = target: T1, Androgen receptor (Homo sapiens, UniProt P10275)
T1 sequence (P10275 whole entry): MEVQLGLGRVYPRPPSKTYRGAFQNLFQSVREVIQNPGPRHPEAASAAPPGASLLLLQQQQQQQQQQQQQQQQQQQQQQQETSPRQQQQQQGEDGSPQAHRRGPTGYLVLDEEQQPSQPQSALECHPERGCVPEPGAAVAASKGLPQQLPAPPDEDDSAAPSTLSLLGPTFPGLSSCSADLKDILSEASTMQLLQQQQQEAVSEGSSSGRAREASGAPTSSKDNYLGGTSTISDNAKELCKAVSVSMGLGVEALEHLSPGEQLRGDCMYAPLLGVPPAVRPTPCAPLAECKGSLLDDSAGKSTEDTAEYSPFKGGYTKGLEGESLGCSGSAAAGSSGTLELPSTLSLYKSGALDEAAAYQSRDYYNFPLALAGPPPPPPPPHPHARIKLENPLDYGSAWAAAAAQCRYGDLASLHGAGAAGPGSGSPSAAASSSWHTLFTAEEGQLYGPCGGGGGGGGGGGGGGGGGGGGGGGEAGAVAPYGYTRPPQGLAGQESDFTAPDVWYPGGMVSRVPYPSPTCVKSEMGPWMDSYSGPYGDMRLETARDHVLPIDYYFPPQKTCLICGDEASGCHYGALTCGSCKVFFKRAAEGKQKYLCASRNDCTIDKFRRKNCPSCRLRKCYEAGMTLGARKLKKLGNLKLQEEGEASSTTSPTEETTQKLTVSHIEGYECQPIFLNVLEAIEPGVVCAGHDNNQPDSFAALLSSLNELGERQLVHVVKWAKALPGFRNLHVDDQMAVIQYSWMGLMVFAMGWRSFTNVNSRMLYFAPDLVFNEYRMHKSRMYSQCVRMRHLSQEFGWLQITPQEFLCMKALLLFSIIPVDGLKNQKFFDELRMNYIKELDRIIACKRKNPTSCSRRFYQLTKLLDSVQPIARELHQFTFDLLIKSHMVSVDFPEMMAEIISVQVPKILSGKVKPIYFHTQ

[14] = Half life in Sprague-Dawley rat at 1 mg/kg, iv measured upto 24 hrs by LC-MS/MS analysis; assay type: ADME, organism-based; conditions: in vivo
[15] = AUC (0 to t) in Sprague-Dawley rat at 1 mg/kg, iv measured upto 24 hrs by LC-MS/MS analysis; assay type: ADME, organism-based; set-up: dose 1 mg/kg, time < 24 hrs, route iv; conditions: in vivo
[16] = Volume of distribution at steady state in Sprague-Dawley rat at 1 mg/kg, iv measured upto 24 hrs by LC-MS/MS analysis; assay type: ADME, organism-based; conditions: in vivo, read-out: Vdss
[17] = Clearance in Sprague-Dawley rat at 1 mg/kg, iv measured upto 24 hrs by LC-MS/MS analysis; assay type: ADME, organism-based; conditions: in vivo
[18] = Cmax in Sprague-Dawley rat at 3 mg/kg, po measured upto 24 hrs by LC-MS/MS analysis; assay type: ADME, organism-based; set-up: dose 3 mg/kg, time < 24 hrs, route po; conditions: in vivo
[19] = AUC (0 to t) in Sprague-Dawley rat at 3 mg/kg, po measured upto 24 hrs by LC-MS/MS analysis; assay type: ADME, organism-based; set-up: dose 3 mg/kg, time < 24 hrs, route po; conditions: in vivo
[20] = Oral bioavailability in Sprague-Dawley rat at 3 mg/kg measured upto 24 hrs by LC-MS/MS analysis; assay type: ADME, organism-based; conditions: in vivo

Chain of Protein cereblon/Androgen receptor (Homo sapiens, UniProt P10275+Q96SW2) (Q96SW2 whole entry, one chain of several): as the sequence (Q96SW2 whole entry) above

N#Cc1ccc(N2CCC3(CCN(c4ccc(C(=O)N5CCC(N6CCc7cc8c(cc7C6)C(=O)N(C6CCC(=O)NC6=O)C8=O)CC5)cc4)CC3)C2)cc1Cl (stereo unspecified)
DC50 ([1]; read-out: DC50): 73 nM

C[C@H]1CC2(CCN(c3ccc(C(=O)N4CC(N5Cc6cc7c(cc6C5)C(=O)N(C5CCC(=O)NC5=O)C7=O)C4)cc3)CC2)CN1c1ccc(C#N)c(Cl)c1 (stereo partly specified)
DC50 ([1]; read-out: DC50): 0.7 nM | DC50 [2]: 5 nM | IC50 [3]: 85 nM | half-life at 24 h [4]: 192 min | Vd at 24 h [5]: 2.7 L/kg | clearance at 24 h [6]: 14.5 mL/min/kg | half-life at 24 h [7]: 113 min | AUC(0-t) at 24 h [8]: 2370 ng·h/mL | Cmax at 24 h [9]: 94 ng/mL | AUC(0-t) at 24 h [10]: 423 ng·h/mL | bioavailability at 24 h [11]: 7.2%

CN1CCc2cc3c(cc2CC1)C(=O)N(C1CCC(=O)NC1=O)C3=O (stereo unspecified)
Ki [12]: 7.3 µM

C[C@H]1CC2(CCN(c3ccc(C(=O)N4CCC(N5Cc6cc7c(cc6C5)C(=O)N(C5CCC(=O)NC5=O)C7=O)CC4)cc3)CC2)CN1c1ccc(C#N)c(Cl)c1 (stereo partly specified)
DC50 ([1]; read-out: DC50): 0.4 nM | DC50 [2]: 0.8 nM | IC50 [3]: 16.5 nM | half-life at 24 h [4]: 330 min | Vd at 24 h [5]: 6.1 L/kg | clearance at 24 h [6]: 15.3 mL/min/kg | half-life at 24 h [7]: 330 min | AUC(0-t) at 24 h [8]: 2100 ng·h/mL | Cmax at 24 h [9]: 410 ng/mL | AUC(0-t) at 24 h [10]: 4280 ng·h/mL | bioavailability at 24 h [11]: 81%

CN1CCN(C(=O)c2ccc(N3CCC4(CCN(c5ccc(C#N)c(Cl)c5)CC4)C3)cc2)CC1
IC50 [13]: 5.4 µM

CN1CCc2cc3c(cc2C1)C(=O)N(C1CCC(=O)NC1=O)C3=O (stereo unspecified)
Ki [12]: 6 µM

CN1CCN(c2ccc(C(=O)N3CCC4(CCN(c5ccc(C#N)c(Cl)c5)CC4)C3)cc2)CC1
IC50 [13]: 5 µM

N#Cc1ccc(N2CCC3(CCN(c4ccc(C(=O)N5CCC(CN6Cc7cc8c(cc7C6)C(=O)N(C6CCC(=O)NC6=O)C8=O)CC5)cc4)CC3)C2)cc1Cl (stereo unspecified)
DC50 ([1]; read-out: DC50): 5.7 nM

C[C@H]1CC2(CCN(c3ccc(C(=O)N4CCC(F)(CN5Cc6cc7c(cc6C5)C(=O)N(C5CCC(=O)NC5=O)C7=O)CC4)cc3)CC2)CN1c1ccc(C#N)c(Cl)c1 (stereo partly specified)
DC50 ([1]; read-out: DC50): 0.9 nM | DC50 [2]: 3.7 nM | IC50 [3]: 18 nM | half-life at 24 h [4]: 474 min | Vd at 24 h [5]: 4.2 L/kg | clearance at 24 h [6]: 7.83 mL/min/kg | half-life at 24 h [7]: 312 min | AUC(0-t) at 24 h [8]: 4000 ng·h/mL | Cmax at 24 h [9]: 216 ng/mL | AUC(0-t) at 24 h [10]: 1820 ng·h/mL | bioavailability at 24 h [11]: 18%

N#Cc1ccc(N2CCC3(CCN(c4ccc(C(=O)N5CCC(N6Cc7cc8c(cc7C6)C(=O)N(C6CCC(=O)NC6=O)C8=O)CC5)cc4)CC3)C2)cc1Cl (stereo unspecified)
DC50 ([1]; read-out: DC50): 9.7 nM

C[C@H]1CC2(CCN(c3ccc(C(=O)N4CCC(CN5Cc6cc7c(cc6C5)C(=O)N(C5CCC(=O)NC5=O)C7=O)CC4)nn3)CC2)CN1c1ccc(C#N)c(Cl)c1 (stereo partly specified)
DC50 ([1]; read-out: DC50): 2.7 nM | DC50 [2]: 0.5 nM | IC50 [3]: 20 nM | half-life [14]: 120 min | AUC(0-t) at 24 h [15]: 1010 ng·h/mL | Vd [16]: 2.2 L/kg | clearance [17]: 32.3 mL/min/kg | half-life at 24 h [7]: 84 min | Cmax [18]: 247 ng/mL | AUC(0-t) at 24 h [19]: 1100 ng·h/mL | bioavailability [20]: 36%

CN1CCN(c2ccc(C(=O)N3CCC4(CC3)CCN(c3ccc(C#N)c(Cl)c3)C4)cc2)CC1
IC50 [13]: 3.6 µM

C[C@H]1CC2(CCN(c3ccc(C(=O)N4CC(CN5Cc6cc7c(cc6C5)C(=O)N(C5CCC(=O)NC5=O)C7=O)C4)cc3)CC2)CN1c1ccc(C#N)c(Cl)c1 (stereo partly specified)
IC50 [3]: 25.7 nM | half-life at 24 h [4]: 84 min | Vd at 24 h [5]: 1.8 L/kg | clearance at 24 h [6]: 25 mL/min/kg | half-life at 24 h [7]: 72 min | AUC(0-t) at 24 h [8]: 1380 ng·h/mL | Cmax at 24 h [9]: 78 ng/mL | AUC(0-t) at 24 h [10]: 310 ng·h/mL | bioavailability at 24 h [11]: 9%

C[C@@H]1CC2(CCN(c3ccc(C(=O)N4CCN(C)CC4)cc3)CC2)CN1c1ccc(C#N)c(Cl)c1
DC50 [1]: Not Active

C[C@H]1CC2(CCN(c3ccc(C(=O)N4CCC(CN5Cc6cc7c(cc6C5)C(=O)N(C5CCC(=O)NC5=O)C7=O)CC4)cn3)CC2)CN1c1ccc(C#N)c(Cl)c1 (stereo partly specified)
DC50 ([1]; read-out: DC50): 2.3 nM | DC50 [2]: 2.2 nM | IC50 [3]: 11 nM

CN1CCN(c2ccc(C(=O)N3CCC4(C3)CN(c3ccc(C#N)c(Cl)c3)C4)cc2)CC1
IC50 [13]: 9.9 µM
